# According to patent publication US20240099299A1, “ANTIMICROBIAL COMPOSITIONS AND METHODS FOR THEIR PREPARATION AND USE IN TREATING PLANT DISEASES” (priority 2021, published 2024):
# Structures can show the parent of a compound that is named as a salt.
# Experiments:
# [1] = Uptake (injection time) of OTC solutions injected into rootstock of Valencia citrus trees; assay type: in vivo; conditions: for Absorption of solution by trees: overall conclusions from functional testing, nS-nPG-OTC: after the first 50 mL
# Experimental: The test article solutions (11,000 ppm) were prepared as above and were fluidly pressurized into latex injection devices (FLexInect™, TJ Biotech LLC, Buffalo, SD) and then were injected into rootstock of uniform, commercially grown, Valencia citrus trees. The injection devices were monitored to measure uptake rates of the solutions.
# Table 2 presents the results of Trial 1, which used trees (n=10) having trunk diameters between 2.125″ and 3.00″.
# Table 3 presents the results of Trial 2, which used trees (n=10) having trunk diameters between 3.00″ and 4.25″. 100 mL of the test solutions were injected with the ambient temperature between 80° F. and 90° F.
# Table 4 presents the results of Trial 3, which used trees (n=30) having trunk diameters between 3.00″ and 4.25″. Up to 100 mL of the test solutions were injected with the ambient temperature <70° F., at which temperatures transpiration in the vascular system is reduced. In this trial, the injections were stopped at 120 minutes regardless of if injections were complete.
# [2] = Visual monitoring of homogeneity of 11,000 ppm OTC test solutions in pH 2 water; assay type: physicochemical; conditions: 11,000 ppm in pH 2 water, 10× magnification, immediately upon preparation at 75° F.; HCl
# Experimental: Next, OTC solutions were prepared by first reducing the pH of water to pH 2 using hydrochloric acid. 11.0 g of PG-OTC (>95%) and non-sterile, nS-nPG-OTC (putatively 95%) each were dissolved into 1.0 L of the pH 2 water to generate 11,000 ppm test solutions, which then were monitored visually at 10× magnification. […] To elucidate the nonhomogeneous nature of the nS-nPG-OTC solutions, visualization was performed at 60× magnification, as is shown in FIG. 8 and wherein an abundance of actively growing needle-like crystals having lengths of approximately 10-250 μm are visible. These needle-like crystals likely comprise OTC and/or OTC and one or more impurities.
# Valencia orange tree = assay: Study 1: comparison of injection and spray applications, tree vigor rating; assay type: in vivo; conditions: Study 1 conclusion
# Experimental: Tree Vigor Ratings: 1=Lowest Vigor; 5=Highest Vigor. LSD stands for least significant difference and C.V. stands for Coefficient of Variance.
# For Treatment 1, a 5,500 ppm solution of PG-OTC was prepared using distilled water. This solution then was acidified to pH 2 using hydrochloric acid. […] For Treatment 2, 2.5 g of PG-OTC was dissolved in 2 gallons of water. The resultant solution was sprayed onto the foliage of the trees at a rate of 1 quart (0.3125 g OTC·HCl) per tree (n=9). Vigor ratings were performed 60 days after application of treatments.
# [3] = OTC residues in fruit after injection; assay type: in vivo; conditions: when using PG-OTC solutions
Compound,"Time (Minutes) of injection/uptake ([1]; Trial 1: 50 mL of 11,000 ppm solution, trunk diameter 2.125-3.00 in, 80-90° F., n=10)","Time (Minutes) of injection/uptake ([1]; Trial 2: 100 mL of 11,000 ppm solution, trunk diameter 3.00-4.25 in, 80-90° F., n=10)","Time (Minutes) of injection/uptake ([1]; Trial 3: up to 100 mL of 11,000 ppm solution, trunk diameter 3.00-4.25 in, <70° F., stopped at 120 minutes, n=30)",Absorption of solution by trees [1],Homogeneity of solution [2],Effectiveness of trunk injection versus application of unacidified solution to foliage by spraying (Valencia orange tree),Residues in the fruit (within tolerance) [3],"Time (Minutes) of injection/uptake ([1]; Trial 1: 50 mL of 11,000 ppm solution, trunk diameter 2.125-3.00 in, 80-90° F., n=10, HCl)","Time (Minutes) of injection/uptake ([1]; Trial 2: 100 mL of 11,000 ppm solution, trunk diameter 3.00-4.25 in, 80-90° F., n=10, HCl)","Time (Minutes) of injection/uptake ([1]; Trial 3: up to 100 mL of 11,000 ppm solution, trunk diameter 3.00-4.25 in, <70° F., stopped at 120 minutes, n=30, HCl)",Absorption of solution by trees ([1]; HCl)
"CN(C)[C@@H]1C(O)=C(C(N)=O)C(=O)[C@@]2(O)C(O)=C3C(=O)c4c(O)cccc4[C@@](C)(O)[C@H]3[C@H](O)[C@@H]12 [nS-nPG-OTC, Oxytetracycline]",15.3 a Minutes,134.7 a Minutes,117.33 a Minutes,marked decrease in absorption rate,,,,,,,
"CN(C)[C@@H]1C(O)=C(C(N)=O)C(=O)[C@@]2(O)C(O)=C3C(=O)c4c(O)cccc4[C@@](C)(O)[C@H]3[C@H](O)[C@@H]12 [PG-OTC, Oxytetracycline HCl]",,,,,essentially homogeneous,more effective,≤ 10 PPB,8.4 b Minutes,18.2 b Minutes,81.1 b Minutes,readily absorbed
